This note sets out measurements from patent US7674899B2, “Dimeric azacyclic compounds and their use” (Neurosearch A/S, priority 2004, dated 2010).

This experiment concerns the target T1, α7-subtype of nicotinic receptors (Rattus norvegicus, UniProt Q05941).
T1 construct: Cerebral cortices from male Wistar rats (150-250 g) are homogenised; from tissue; host or cells: rat cerebral cortex membrane homogenate
The experiment is described as follows: In vitro inhibition of 3H-α-bungarotoxine binding in rat brain. Particulars: rat cerebral cortex homogenate; 2 nM 3H-α-bungarotoxine; 2 hours at 37° C.

Counter-ions that a name gives are not always drawn.

T1 sequence (Q05941 23-502): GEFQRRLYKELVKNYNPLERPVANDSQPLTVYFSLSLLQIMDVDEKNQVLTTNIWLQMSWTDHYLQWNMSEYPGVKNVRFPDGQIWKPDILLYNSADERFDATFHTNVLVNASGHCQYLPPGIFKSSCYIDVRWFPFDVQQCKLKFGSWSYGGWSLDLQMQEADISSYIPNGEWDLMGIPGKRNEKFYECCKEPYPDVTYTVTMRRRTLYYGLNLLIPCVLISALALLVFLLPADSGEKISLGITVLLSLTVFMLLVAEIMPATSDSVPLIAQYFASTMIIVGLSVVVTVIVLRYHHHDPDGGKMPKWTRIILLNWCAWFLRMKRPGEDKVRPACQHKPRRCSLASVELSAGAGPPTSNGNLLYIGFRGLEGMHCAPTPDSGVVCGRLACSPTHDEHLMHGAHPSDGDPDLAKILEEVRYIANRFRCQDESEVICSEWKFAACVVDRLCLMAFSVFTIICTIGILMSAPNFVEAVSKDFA

In general, IC50 refers to the midpoint of a concentration-inhibition curve. Low values mean greater potency in that assay, high ones weaker potency in that assay. For `c1nc(OC2CN3CCC2CC3)sc1-c1cnc(OC2CN3CCC2CC3)s1` (racemic) [Compound A1, 2,2′-Bis-((±)-1-aza-bicyclo[2.2.2]oct-3-yloxy)-[5,5′]-bithiazolyl fumaric acid salt], the IC50 worked out at 200 nM.
